Data reported in patent US20050208084A1, “Use of alkylamidomandelates as flavourings” (priority 2002, published 2005).

What was measured:
[1] = cited from earlier work
[2] = Tasting the mandelic acid alkylamides (sensory panel, ethanolic solution diluted in 11% sugar solution, swallowed); type: in vivo; settings: for estimation of pungency: scale of 1 (very weak) to 9 (very strong), 6-8 testers
Protocol: The substance to be tasted is dissolved in ethanol and the ethanolic solution is then diluted with an 11% sugar solution (final concentration: c). For tasting, in each case approximately 5 ml of the sugar solution are swallowed. If the threshold value of the substance is known, a value just above the threshold value is chosen for the tasting. A group of 6-8 testers tasted the solutions.
Where possible, the impression of pungency was estimated on a scale of 1 (very weak) to 9 (very strong).

Q: With `COc1cc(CNC(=O)CCCC/C=C/C(C)C)ccc1O` [Capsaicin, N-(4-hydroxy-3-methoxybenzyl)-8-methyl-(6E)-nonenoamide] as the molecule, how does the “damage occurring in the case of frequent use and overdose” value ([1]; frequent use and overdose) read?
A: chronic gastritis, kidney and liver damage

Q: What about the LD50 ([1]; mouse oral) of the same molecule?
A: 47 mg

Q: Which taste profile ([2]; 100 ppb in 11% sugar solution) does the source give for `COc1cc(CNC(=O)CCCCCCC(C)C)ccc1O` [Dihydrocapsaicin, reference compound] here?
A: slightly delayed onset of effect in pharyngeal cavity, burning, aggressive, no development of heat

Q: Which taste profile ([2]; 200 ppb in 11% sugar solution) does the source give for `CCCCCCCCC(=O)NCc1ccc(O)c(OC)c1` [N-(3-methoxy-4-hydroxybenzyl)nonanoamide, reference compound] here?
A: slightly delayed onset of effect in pharyngeal cavity, little pungency on the tongue, stinging, no development of heat

Q: Which taste profile ([2]; 10 ppm in 11% sugar solution) does the source give for `CCCCCCCCNC(=O)C(O)c1ccc(O)c(O)c1` (centres unmarked) [no. 4, 2-(3,4-Dihydroxyphenyl)-2-hydroxy-N-octylacetamide] here?
A: pungency develops slowly; stinging, rough, slightly spicy

Q: And the estimation of pungency ([2]; 10 ppm in 11% sugar solution)?
A: 5

Q: Which taste profile ([2]; 1 ppm in 11% sugar solution) does the source give for `CCCCCCCCNC(=O)C(O)c1ccc(OC)c(O)c1` (centres unmarked) [no. 6, 2-(3-Hydroxy-4-methoxyphenyl)-2-hydroxy-N-octylacetamide] here?
A: slightly pungent, particularly on the tongue, slight tingling, rapidly disappears again

Q: And the estimation of pungency ([2]; 1 ppm in 11% sugar solution)?
A: 3

Q: Which taste profile ([2]; 10 ppm in 11% sugar solution) does the source give for `CCCCCCCNC(=O)C(O)c1ccc(O)c(OC)c1` (centres unmarked) [no. 8, 2-(4-Hydroxy-3-methoxyphenyl)-2-hydroxy-N-heptylacetamide] here?
A: pungency develops; burning, slightly over-ripe

Q: And the estimation of pungency ([2]; 10 ppm in 11% sugar solution)?
A: 7

Q: Which results are given for `CCCCCCCCNC(=O)C(O)c1ccc(O)c(OC)c1` (centres unmarked) [no. 9, 2-(4-Hydroxy-3-methoxyphenyl)-2-hydroxy-N-octylacetamide]?
A: taste profile ([2]; 1 ppm in 11% sugar solution): no pungency initially, develops suddenly, very intense and long-lasting, ginger pungency; estimation of pungency ([2]; 1 ppm in 11% sugar solution): 8

Q: Which taste profile ([2]; 10 ppm in 11% sugar solution) does the source give for `CCCCCCCCCNC(=O)C(O)c1ccc(O)c(OC)c1` (centres unmarked) [no. 10, 2-(4-Hydroxy-3-methoxyphenyl)-2-hydroxy-N-nonylacetamide] here?
A: immediate onset of pungency; similar to capsaicin

Q: What about the estimation of pungency ([2]; 10 ppm in 11% sugar solution) of the same molecule?
A: 8
